From ChEMBL document CHEMBL3098111, “Discovery of 2,5-diarylnicotinamides as selective orexin-2 receptor antagonists (2-SORAs)” (Bioorg Med Chem Lett, 2013)

Assays:
Cavia porcellus = species on record: Cavia porcellus; assay: Inhibition of guinea pig adenosine transporter at 10 nM relative to control
Rattus norvegicus [1] = species on record: Rattus norvegicus; assay: Inhibition of rat sodium channel site 2 at 10 uM relative to control
[2] = target: Peroxisome proliferator-activated receptor gamma (Homo sapiens) (UniProt P37231); assay: Inhibition of human PPARgamma at 10 uM relative to control
Bos taurus = species on record: Bos taurus; assay: Inhibition of bovine PDE1 at 100 uM relative to control
[3] = target: 5-hydroxytryptamine receptor 2B (Homo sapiens, UniProt P41595); assay: Inhibition of human 5-HT2B receptor at 0.1 uM relative to control
Rattus norvegicus [4] = species on record: Rattus norvegicus; assay: Inhibition of rat strychnine-sensitive glycine receptor at 10 uM relative to control
[5] = target: B1 bradykinin receptor (Homo sapiens) (UniProt P46663); assay: Inhibition of human bradykinin B1 receptor at 10 uM relative to control
[6] = target: T1, 5-hydroxytryptamine receptor 1A (Homo sapiens) (UniProt P08908); assay: Inhibition of human 5-HT1A receptor at 10 nM relative to control
T1 sequence (whole entry): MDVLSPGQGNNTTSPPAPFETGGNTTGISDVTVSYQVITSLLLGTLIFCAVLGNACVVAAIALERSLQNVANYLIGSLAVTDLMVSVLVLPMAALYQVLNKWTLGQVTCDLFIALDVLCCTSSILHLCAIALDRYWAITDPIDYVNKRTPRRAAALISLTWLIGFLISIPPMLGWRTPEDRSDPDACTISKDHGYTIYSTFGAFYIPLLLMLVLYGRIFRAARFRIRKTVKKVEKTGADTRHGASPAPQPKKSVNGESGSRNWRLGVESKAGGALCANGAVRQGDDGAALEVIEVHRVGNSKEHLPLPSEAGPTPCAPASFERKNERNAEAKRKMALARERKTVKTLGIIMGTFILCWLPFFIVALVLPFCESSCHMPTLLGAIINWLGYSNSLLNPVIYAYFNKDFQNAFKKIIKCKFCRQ

Oryctolagus cuniculus = species on record: Oryctolagus cuniculus; assay: Inhibition of rabbit monoamine transporter at 10 uM relative to control
Caspase-3 (Homo sapiens) = Caspase-3 (Homo sapiens) (UniProt P42574); assay: Inhibition of human caspase 3 at 10 uM relative to control
[7] = target: Sodium-dependent dopamine transporter (Homo sapiens) (UniProt Q01959); assay: Inhibition of human DAT at 10 uM relative to control
[8] = target: GABA-A receptor; alpha-5/beta-3/gamma-2 (Homo sapiens) (UniProt P18507+P28472+P31644); assay: Inhibition of human GABA alpha5beta3gamma2 receptor muscimol binding site at 10 uM relative to control; assay type: protein-complex assay
Rattus norvegicus [9] = species on record: Rattus norvegicus; assay: Inhibition of rat N-type calcium channel at 10 uM relative to control
[10] = target: Galanin receptor type 2 (Homo sapiens) (UniProt O43603); assay: Inhibition of human GAL2 receptor at 10 uM relative to control
[11] = target: Endothelin-1 receptor (Homo sapiens) (UniProt P25101); assay: Inhibition of human ETA receptor at 10 uM relative to control
[12] = target: Muscarinic acetylcholine receptor M5 (Homo sapiens) (UniProt P08912); assay: Inhibition of human muscarinic M5 receptor at 10 uM relative to control
Caspase-1 (Homo sapiens) = Caspase-1 (Homo sapiens) (UniProt P29466); assay: Inhibition of human caspase 1 at 10 uM relative to control
[13] = target: Tyrosine-protein phosphatase non-receptor type 2 (Homo sapiens) (UniProt P17706); assay: Inhibition of human TCPTP at 10 uM relative to control
[14] = target: Vascular endothelial growth factor receptor 1 (Homo sapiens) (UniProt P17948); assay: Inhibition of human FLT1 at 10 uM relative to control
[15] = target: Muscarinic acetylcholine receptor M2 (Homo sapiens) (UniProt P08172); assay: Inhibition of human muscarinic M2 receptor at 10 uM relative to control
Rattus norvegicus [16] = species on record: Rattus norvegicus; assay: Inhibition of rat 5-HT1 receptor at 10 uM relative to control
Caspase-8 (Homo sapiens) = Caspase-8 (Homo sapiens) (UniProt Q14790); assay: Inhibition of human caspase 8 at 10 uM relative to control
[17] = target: Cannabinoid receptor 1 (Homo sapiens) (UniProt P21554); assay: Inhibition of human CB1 receptor at 10 uM relative to control
[18] = target: Tyrosine 3-monooxygenase (Rattus norvegicus) (UniProt P04177); assay: Inhibition of rat tyrosine hydroxylase at 10 uM relative to control
[19] = target: D(2) dopamine receptor (Homo sapiens) (UniProt P14416); assay: Inhibition of human dopamine D2S receptor at 10 uM relative to control
Gallus gallus = species on record: Gallus gallus; assay: Inhibition of chicken MT receptor at 10 uM relative to control
Caspase-6 (Homo sapiens) = Caspase-6 (Homo sapiens) (UniProt P55212); assay: Inhibition of human caspase 6 at 10 uM relative to control
[20] = target: Protein kinase C alpha type (Homo sapiens) (UniProt P17252); assay: Inhibition of human PRKCA at 100 uM relative to control
[21] = target: Vasoactive intestinal polypeptide receptor 1 (Homo sapiens) (UniProt P32241); assay: Inhibition of human VIP1 receptor at 10 uM relative to control
[22] = target: Insulin receptor (Rattus norvegicus) (UniProt P15127); assay: Inhibition of rat insulin receptor at 10 uM relative to control
[23] = target: Inositol 1,4,5-trisphosphate-gated calcium channel ITPR1 (Rattus norvegicus) (UniProt P29994); assay: Inhibition of rat IP3 receptor at 10 uM relative to control
[24] = target: cGMP-specific 3',5'-cyclic phosphodiesterase (Homo sapiens) (UniProt O76074); assay: Inhibition of human PDE5 at 100 uM relative to control
[25] = target: Somatostatin receptor type 3 (Homo sapiens) (UniProt P32745); assay: Inhibition of human SST3 receptor at 10 uM relative to control
[26] = target: Phosphodiesterase 3 (Homo sapiens) (UniProt Q14432+Q13370); assay: Inhibition of human PDE3 at 100 uM relative to control; assay type: protein assay
[27] = target: Receptor-type tyrosine-protein phosphatase C (Homo sapiens) (UniProt P08575); assay: Inhibition of human CD45 at 10 uM relative to control
[28] = target: Prostaglandin E2 receptor EP1 subtype (Homo sapiens) (UniProt P34995); assay: Inhibition of human prostanoid EP1 receptor at 10 uM relative to control
[29] = target: Mitogen-activated protein kinase 3 (Homo sapiens) (UniProt P27361); assay: Inhibition of human MAPK3 at 100 uM relative to control
[30] = target: 5-hydroxytryptamine receptor 1B (Rattus norvegicus) (UniProt P28564); assay: Inhibition of rat 5-HT1B receptor at 10 uM relative to control
[31] = target: C-C chemokine receptor type 5 (Homo sapiens) (UniProt P51681); assay: Inhibition of human CCR5 at 10 uM relative to control
Sequence of C-C chemokine receptor type 5 (Homo sapiens) (P51681 whole entry, looked up): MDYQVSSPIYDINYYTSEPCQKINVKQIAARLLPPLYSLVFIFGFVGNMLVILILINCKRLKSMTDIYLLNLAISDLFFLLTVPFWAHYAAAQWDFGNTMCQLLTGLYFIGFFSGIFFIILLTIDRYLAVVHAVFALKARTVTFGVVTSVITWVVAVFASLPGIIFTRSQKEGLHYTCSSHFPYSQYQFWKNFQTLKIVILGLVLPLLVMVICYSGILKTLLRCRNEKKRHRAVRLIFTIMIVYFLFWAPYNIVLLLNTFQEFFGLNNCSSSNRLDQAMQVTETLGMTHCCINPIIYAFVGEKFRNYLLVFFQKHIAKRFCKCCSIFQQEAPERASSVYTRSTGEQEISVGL

Sequence of Galanin receptor type 2 (Homo sapiens) (O43603 whole entry): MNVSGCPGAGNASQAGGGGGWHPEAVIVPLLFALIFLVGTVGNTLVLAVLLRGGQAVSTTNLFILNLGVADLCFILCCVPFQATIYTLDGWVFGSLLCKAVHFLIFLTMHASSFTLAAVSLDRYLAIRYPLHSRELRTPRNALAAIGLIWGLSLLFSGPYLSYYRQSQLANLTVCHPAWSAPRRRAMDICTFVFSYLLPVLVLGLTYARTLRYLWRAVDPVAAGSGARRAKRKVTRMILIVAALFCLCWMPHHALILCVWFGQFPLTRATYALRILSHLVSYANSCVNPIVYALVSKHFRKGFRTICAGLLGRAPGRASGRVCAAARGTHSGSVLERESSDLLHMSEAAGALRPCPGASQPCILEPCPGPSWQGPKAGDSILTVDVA
Sequence of B1 bradykinin receptor (Homo sapiens) (P46663 whole entry): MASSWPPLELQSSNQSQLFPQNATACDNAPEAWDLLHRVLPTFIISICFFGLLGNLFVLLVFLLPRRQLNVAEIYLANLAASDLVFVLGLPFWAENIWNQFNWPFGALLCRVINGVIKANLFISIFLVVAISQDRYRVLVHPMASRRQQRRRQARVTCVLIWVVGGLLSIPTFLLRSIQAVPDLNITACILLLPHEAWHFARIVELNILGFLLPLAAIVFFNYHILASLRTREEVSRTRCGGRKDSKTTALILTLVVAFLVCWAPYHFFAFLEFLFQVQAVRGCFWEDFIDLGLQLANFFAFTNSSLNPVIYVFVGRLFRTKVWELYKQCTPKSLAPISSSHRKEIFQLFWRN
Sequence of Caspase-3 (Homo sapiens) (P42574 29-175 limits assumed): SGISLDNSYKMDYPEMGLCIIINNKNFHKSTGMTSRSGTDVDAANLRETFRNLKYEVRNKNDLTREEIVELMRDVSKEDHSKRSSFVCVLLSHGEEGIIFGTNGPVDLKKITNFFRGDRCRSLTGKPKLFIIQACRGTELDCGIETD
Sequence of Caspase-3 (Homo sapiens) (P42574 176-277 limits assumed): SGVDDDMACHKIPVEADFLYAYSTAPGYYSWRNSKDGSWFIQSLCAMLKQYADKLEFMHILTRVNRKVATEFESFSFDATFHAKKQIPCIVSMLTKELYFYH
Sequence of Somatostatin receptor type 3 (Homo sapiens) (P32745 whole entry): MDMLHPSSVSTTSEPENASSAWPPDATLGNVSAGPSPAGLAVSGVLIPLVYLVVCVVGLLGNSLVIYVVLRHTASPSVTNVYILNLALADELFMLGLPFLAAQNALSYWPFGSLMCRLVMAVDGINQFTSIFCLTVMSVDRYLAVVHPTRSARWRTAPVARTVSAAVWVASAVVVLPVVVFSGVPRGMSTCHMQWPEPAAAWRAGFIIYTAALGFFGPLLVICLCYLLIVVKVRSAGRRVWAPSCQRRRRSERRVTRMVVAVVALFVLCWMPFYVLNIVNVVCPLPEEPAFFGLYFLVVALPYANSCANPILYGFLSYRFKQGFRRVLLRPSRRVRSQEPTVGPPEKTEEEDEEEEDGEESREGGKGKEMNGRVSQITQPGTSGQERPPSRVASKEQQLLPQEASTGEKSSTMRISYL
Sequence of Receptor-type tyrosine-protein phosphatase C (Homo sapiens) (P08575 whole entry): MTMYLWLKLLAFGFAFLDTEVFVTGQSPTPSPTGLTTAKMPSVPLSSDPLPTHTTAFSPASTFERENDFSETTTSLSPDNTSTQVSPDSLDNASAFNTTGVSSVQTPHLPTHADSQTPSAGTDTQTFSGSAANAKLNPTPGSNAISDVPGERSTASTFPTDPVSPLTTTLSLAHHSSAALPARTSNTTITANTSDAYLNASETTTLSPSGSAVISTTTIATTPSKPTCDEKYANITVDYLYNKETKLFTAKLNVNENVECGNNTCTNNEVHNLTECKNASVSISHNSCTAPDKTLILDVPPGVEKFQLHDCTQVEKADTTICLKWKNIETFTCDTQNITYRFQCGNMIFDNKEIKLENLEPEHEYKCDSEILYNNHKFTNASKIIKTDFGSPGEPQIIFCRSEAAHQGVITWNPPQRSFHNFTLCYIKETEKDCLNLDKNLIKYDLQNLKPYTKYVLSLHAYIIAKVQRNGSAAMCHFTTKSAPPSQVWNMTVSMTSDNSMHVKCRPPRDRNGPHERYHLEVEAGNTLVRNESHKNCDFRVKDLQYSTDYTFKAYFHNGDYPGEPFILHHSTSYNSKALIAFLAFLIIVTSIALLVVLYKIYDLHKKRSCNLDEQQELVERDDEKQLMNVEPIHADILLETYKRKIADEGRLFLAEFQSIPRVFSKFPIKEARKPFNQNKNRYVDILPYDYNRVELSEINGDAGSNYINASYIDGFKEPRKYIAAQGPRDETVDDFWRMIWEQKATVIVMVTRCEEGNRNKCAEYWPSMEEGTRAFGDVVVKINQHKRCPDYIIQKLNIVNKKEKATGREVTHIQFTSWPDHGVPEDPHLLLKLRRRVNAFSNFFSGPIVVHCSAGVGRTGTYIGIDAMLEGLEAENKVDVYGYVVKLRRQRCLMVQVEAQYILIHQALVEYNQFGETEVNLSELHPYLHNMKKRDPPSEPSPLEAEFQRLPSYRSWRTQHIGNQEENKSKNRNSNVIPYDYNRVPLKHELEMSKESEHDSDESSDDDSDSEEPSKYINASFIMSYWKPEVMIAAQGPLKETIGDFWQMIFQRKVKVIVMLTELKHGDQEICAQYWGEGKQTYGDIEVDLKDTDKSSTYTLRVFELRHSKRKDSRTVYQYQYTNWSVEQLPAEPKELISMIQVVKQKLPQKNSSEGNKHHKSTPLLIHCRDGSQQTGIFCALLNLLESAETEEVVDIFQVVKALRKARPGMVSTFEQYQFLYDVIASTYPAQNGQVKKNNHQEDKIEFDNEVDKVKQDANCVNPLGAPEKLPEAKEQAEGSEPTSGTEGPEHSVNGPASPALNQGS
Sequence of Insulin receptor (Rattus norvegicus) (P15127 27-759 limits assumed): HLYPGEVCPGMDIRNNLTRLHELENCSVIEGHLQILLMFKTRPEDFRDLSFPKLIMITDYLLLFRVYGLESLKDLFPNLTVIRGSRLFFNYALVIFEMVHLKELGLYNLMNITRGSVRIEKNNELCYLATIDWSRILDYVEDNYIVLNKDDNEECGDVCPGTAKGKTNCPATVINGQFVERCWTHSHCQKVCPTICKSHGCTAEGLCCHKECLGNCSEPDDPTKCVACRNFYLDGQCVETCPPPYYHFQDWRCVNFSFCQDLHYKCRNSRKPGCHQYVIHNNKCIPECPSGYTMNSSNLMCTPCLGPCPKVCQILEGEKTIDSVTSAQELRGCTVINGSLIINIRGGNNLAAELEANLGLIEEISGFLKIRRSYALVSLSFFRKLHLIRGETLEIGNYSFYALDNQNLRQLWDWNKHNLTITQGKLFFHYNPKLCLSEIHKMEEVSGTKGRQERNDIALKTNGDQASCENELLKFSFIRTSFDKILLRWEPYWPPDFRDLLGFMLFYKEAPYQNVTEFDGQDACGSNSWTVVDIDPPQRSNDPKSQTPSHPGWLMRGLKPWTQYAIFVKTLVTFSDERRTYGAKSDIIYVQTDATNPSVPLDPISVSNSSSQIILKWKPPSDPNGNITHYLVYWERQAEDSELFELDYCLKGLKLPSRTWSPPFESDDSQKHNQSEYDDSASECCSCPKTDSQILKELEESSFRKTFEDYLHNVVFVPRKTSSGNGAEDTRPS
Sequence of Insulin receptor (Rattus norvegicus) (P15127 764-1383 limits assumed): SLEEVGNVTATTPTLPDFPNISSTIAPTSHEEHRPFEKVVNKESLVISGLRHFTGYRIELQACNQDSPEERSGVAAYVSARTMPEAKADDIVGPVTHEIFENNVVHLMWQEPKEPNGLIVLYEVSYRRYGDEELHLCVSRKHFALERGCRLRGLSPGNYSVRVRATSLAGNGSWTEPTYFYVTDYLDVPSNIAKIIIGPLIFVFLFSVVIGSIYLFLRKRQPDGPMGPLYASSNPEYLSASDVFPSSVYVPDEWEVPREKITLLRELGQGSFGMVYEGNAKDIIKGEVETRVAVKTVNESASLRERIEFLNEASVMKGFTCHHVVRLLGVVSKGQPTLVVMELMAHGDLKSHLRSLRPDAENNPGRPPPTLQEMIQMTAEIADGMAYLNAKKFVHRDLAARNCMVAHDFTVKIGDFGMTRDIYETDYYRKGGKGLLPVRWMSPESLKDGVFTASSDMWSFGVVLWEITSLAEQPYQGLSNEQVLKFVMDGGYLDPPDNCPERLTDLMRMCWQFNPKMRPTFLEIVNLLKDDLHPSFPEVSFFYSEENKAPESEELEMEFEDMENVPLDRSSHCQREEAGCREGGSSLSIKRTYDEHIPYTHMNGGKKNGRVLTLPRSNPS
Sequence of D(2) dopamine receptor (Homo sapiens) (P14416 whole entry): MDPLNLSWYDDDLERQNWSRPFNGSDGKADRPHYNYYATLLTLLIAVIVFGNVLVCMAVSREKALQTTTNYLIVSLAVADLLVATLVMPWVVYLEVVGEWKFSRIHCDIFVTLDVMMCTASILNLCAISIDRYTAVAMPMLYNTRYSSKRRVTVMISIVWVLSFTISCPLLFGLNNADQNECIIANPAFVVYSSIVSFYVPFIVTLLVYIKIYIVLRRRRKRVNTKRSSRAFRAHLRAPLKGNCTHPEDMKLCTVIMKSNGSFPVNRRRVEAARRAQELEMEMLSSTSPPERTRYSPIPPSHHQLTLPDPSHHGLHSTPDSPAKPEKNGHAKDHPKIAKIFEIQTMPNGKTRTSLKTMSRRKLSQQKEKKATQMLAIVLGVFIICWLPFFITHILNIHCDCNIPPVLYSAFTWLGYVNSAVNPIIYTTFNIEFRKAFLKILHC

For COc1ccc(CNC(=O)c2cc(-c3cc(Cl)cc(Cl)c3)cnc2-c2cccnc2)cc1OC, the inhibition (Cavia porcellus) was 2%, the inhibition (Rattus norvegicus [1]) was 39% and the inhibition [2] was 3%. For the same molecule, the inhibition (Bos taurus) was -3%, the inhibition [3] was 6% and the inhibition (Rattus norvegicus [4]) was -5%. It also gave an inhibition [5] of 3%, an inhibition [6] of 2% and an inhibition (Oryctolagus cuniculus) of 52%. The inhibition (Caspase-3 (Homo sapiens)) was -1%, the inhibition [7] was -7% and the inhibition [8] was 14%. It also gave an inhibition (Rattus norvegicus [9]) of 2%, an inhibition [10] of 6% and an inhibition [11] of 4%. It also gave an inhibition [12] of 1%, an inhibition (Caspase-1 (Homo sapiens)) of 4% and an inhibition [13] of 4%. It also gave an inhibition [14] of 20%, an inhibition [15] of -8% and an inhibition (Rattus norvegicus [16]) of 36%. The inhibition (Caspase-8 (Homo sapiens)) was -1%, the inhibition [17] was 10% and the inhibition [18] was -3%. The inhibition [19] was -2%, the inhibition (Gallus gallus) was 22% and the inhibition (Caspase-6 (Homo sapiens)) was 7%. For the same molecule, the inhibition [20] was 29%, the inhibition [21] was 6% and the inhibition [22] was -5%. The inhibition [23] was 0%, the inhibition [24] was -8% and the inhibition [25] was 30%. It also gave an inhibition [26] of 0%, an inhibition [27] of -1% and an inhibition [28] of 10%. For the same molecule, the inhibition [29] was 10%, the inhibition [30] was 73% and the inhibition [31] was 11%.
